Experiment [1] is described as follows: NIH-3T3 fibroblast cytotoxicity, dose response, cytotoxicity control, cell-based, fluorescence, Alamar Blue, secondary assay (AID 2327).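 Note: NIH-3T3 mouse fibroblasts cultured with fluconazole at 8 µg/mL.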 The experiment is classed as functional.
The nature of experiment [2]: fluconazole-exposed Candida albicans growth modulators – fluorescence, retest, confirmation (AID 2467). The experiment is classed as functional, cell-based.
The target in experiment [3] is T1, Short transient receptor potential channel 4 (Mus musculus, UniProt Q9QUQ5).
T1 sequence (Q9QUQ5 whole entry): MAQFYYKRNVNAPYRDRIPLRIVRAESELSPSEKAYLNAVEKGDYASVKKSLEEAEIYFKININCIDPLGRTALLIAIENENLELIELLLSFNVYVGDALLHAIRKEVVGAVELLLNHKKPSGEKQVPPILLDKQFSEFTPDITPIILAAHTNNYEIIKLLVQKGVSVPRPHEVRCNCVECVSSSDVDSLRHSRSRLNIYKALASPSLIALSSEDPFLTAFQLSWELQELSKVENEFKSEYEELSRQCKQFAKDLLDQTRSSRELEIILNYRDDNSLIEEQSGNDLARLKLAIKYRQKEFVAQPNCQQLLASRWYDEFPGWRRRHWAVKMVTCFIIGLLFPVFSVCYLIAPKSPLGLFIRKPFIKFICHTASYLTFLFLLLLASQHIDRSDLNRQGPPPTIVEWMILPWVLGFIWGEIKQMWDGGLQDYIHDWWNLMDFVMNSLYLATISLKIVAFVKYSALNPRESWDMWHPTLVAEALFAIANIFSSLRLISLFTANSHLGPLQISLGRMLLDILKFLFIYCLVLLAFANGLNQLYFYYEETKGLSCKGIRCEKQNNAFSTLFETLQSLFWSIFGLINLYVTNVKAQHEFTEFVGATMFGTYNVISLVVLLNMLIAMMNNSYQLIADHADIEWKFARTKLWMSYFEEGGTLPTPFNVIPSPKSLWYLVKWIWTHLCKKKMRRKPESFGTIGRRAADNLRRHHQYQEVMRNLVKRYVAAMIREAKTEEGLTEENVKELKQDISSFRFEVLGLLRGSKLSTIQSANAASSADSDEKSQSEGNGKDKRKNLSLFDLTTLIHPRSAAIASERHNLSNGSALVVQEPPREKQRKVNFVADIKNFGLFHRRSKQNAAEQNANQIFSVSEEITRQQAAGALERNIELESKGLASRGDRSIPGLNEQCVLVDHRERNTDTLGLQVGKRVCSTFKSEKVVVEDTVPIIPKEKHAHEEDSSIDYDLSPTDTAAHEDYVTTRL
Put plainly: calcium entry via TRPC4 opening agents – cell-based, HEK293 TRPC4/mu-opioid, Fluo-4 calcium, dose response (AID 434937). The experiment is classed as functional.

The target in experiment [4] is T2, High affinity choline transporter 1 (Homo sapiens, UniProt Q9GZV3).
T2 sequence (Q9GZV3 whole entry): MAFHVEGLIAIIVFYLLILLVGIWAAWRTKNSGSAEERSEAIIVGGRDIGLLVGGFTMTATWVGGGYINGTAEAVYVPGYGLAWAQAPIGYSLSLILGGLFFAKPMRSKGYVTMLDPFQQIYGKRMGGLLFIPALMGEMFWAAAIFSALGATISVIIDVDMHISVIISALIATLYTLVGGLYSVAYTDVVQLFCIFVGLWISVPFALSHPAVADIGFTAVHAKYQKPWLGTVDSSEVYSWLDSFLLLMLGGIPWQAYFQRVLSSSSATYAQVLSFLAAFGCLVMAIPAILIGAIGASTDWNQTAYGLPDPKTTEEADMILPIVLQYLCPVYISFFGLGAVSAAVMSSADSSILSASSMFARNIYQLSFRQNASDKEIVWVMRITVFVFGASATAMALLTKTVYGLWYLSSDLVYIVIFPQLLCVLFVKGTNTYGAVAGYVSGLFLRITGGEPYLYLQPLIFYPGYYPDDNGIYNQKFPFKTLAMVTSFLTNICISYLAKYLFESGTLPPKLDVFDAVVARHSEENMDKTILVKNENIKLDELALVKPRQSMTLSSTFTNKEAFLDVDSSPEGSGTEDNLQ
The experiment can be described thus: human choline transporter blockers, potency – cell-based, 5-point CRC, membrane potential dye, dose response (AID 504840). The experiment is classed as functional.

The nature of experiment [5]: HGIII-sPLA2 enzyme inhibition potency – biochemical, QFRET, IC50, dose response (AID 743457).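 Note: green fluorescence rise as the enzyme cleaves BODIPY PC-A2 in liposomes.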
The target in the next experiment is Paired box protein Pax-8 (Homo sapiens, UniProt Q06710). Put plainly: PAX8 transcriptional activity inhibition in RMG-I – RMG-I cells, luciferase, cherry-pick, dose response (AID 687027).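 Note: luciferase reporter driven by Pax8 target thyroperoxidase promoter measured by SteadyGlo luminescence.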 The experiment is classed as functional, cell-based.
A short description of experiment [6]: toxicity toward immortalized ovarian surface epithelium – cell-based, plate reader, dry powder samples, cytotoxicity control for PAX8 inhibitor project, dose response (AID 743045). The experiment is classed as functional.
A short description of experiment [7]: OVCAR-3 cell viability loss – plate reader, dry powder samples, PAX8 inhibitor project, dose response (AID 743044). The experiment is classed as functional, cell-based.
A short description of experiment [8]: IGROV1 cell killing – plate reader, dry powder samples, PAX8 inhibitor project, dose response (AID 743043). The experiment is classed as functional, cell-based. To be noted: IGROV-1.
Experiment [9] in a line: OVCAR8 cell viability loss – plate reader, dry powder samples, PAX8 project, dose response (AID 743197). The experiment is classed as functional, cell-based. To be noted: OVCAR-8.
A short description of experiment [10]: YAP1 overexpression rescue of CTGF inhibition – DLD1 cells, RT-qPCR, cherry-pick, mechanism study for YAP1 pathway inhibitor project, dose response (AID 1053127). The experiment is classed as functional, cell-based. To be noted: DLD-1.
A short description of experiment [11]: CTGF mRNA reduction in DLD1 cells – cell-based, DLD1 colon cancer, RT-qPCR, cherry-pick, dose response (AID 1053122). The experiment is classed as functional. To be noted: Cancer cell lines.
Experiment [12] can be described thus: Late stage assay provider results from the probe development effort to identify inhibitors of the Plasmodium falciparum M17 Leucine Aminopeptidase (M17LAP): radiolabel-based cell-based dose response assay to identify compounds that inhibit P. falciparum growth in RBCs Set 2. The experiment is classed as functional.
Experiment [13] is described as follows: THP-1 cell cytotoxicity, dose response, cytotoxicity control for non-replicating M. tuberculosis project (AID 489025). The experiment is classed as functional.
The nature of experiment [14]: HepG2 cell cytotoxicity, dose response, cytotoxicity control for non-replicating M. tuberculosis project (AID 489018). The experiment is classed as functional. To be noted: Mycobacterium tuberculosis.
A short description of experiment [15]: Vero E6 cell cytotoxicity, dose response, cytotoxicity control for non-replicating M. tuberculosis project, secondary assay (AID 492998). The experiment is classed as functional, VeroE6. To be noted: Vero C1008.
In the next experiment the test system is INS1. Put plainly: INS-1E survival protection against cytokine death – cell-based, luminescence, retest, dose response (AID 449756).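 Note: cell death triggered by IL-1 beta plus TNF-alpha plus IFN-gamma mixture; protective hits raise ATP signal compared with cytokine alone wells.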 To be noted: Rattus norvegicus. The experiment is classed as functional.
Experiment [16] is described as follows: general mammalian cell viability loss – inhibitor set, cherry-pick, set 2, cytotoxicity control for miR-122 modulator project, dose response (AID 720697). The experiment is classed as functional, cell-based.
Experiment [17] is described as follows: general mammalian cell viability loss – activator set, cherry-pick, cytotoxicity control for miR-122 modulator project, dose response (AID 720690).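 Note: HEK293T human cells scored for general mammalian cytotoxicity.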 The experiment is classed as functional, cell-based.
Experiment [18] is described as follows: viability loss in HEK293 kidney cells – cell-based, cherry-picks, set 5, cytotoxicity control, dose response (AID 1053117). The experiment is classed as functional.
The nature of experiment [19]: HeLa cell viability loss – plate reader, dry powder, cytotoxicity control, dose response (AID 651946). The experiment is classed as functional, cell-based.
The target of the next experiment is Major prion protein (Homo sapiens, UniProt P04156). The experiment is classed as functional, cell-based.

Each structure is given as a SMILES string. Calls of active or inactive are those of the source.

For the compound `O=C(NNC(=S)NC(=O)C12CC3CC(CC(C3)C1)C2)c1ccncc1`, the EC50 in experiment [1] was 26.4 µM (active); in [2], 3.2 µM (active); in [3], 4.22 µM (active). Besides, the IC50 was 28.8 µM (active) in [4] and > 122 µM (inactive) in experiment [5].

On to `C[C@H](CO)N1C[C@H](C)[C@H](CN(C)Cc2ccc(C(=O)Nc3ccccc3N)cc2)Oc2ccc(N(C)C)cc2C1=O`, for which the AC50 on Paired box protein Pax-8 is 10.5 µM (active); in experiment [6], 56.3 µM (active); in experiment [7], 43.9 µM (active); in experiment [8], 23.4 µM (active); in experiment [9], 33.7 µM (active).

With `CO[C@@H](CN(C)S(=O)(=O)c1ccc(C)cc1)[C@H](C)CN([C@@H](C)CO)S(=O)(=O)c1cccc(Cl)c1`, the AC50 in experiment [10] was 17.7 µM (active); in [11], 16.4 µM (active).

Regarding `CCCCOc1ccc(CN(O)C(=O)c2ccccc2)cc1`, the IC50 in [12] was 13.6 µM (inactive).

With `N#CC1=C(N)Oc2c(ccc3cccnc23)C1c1ccccc1` (stereo not drawn), the results for the CC50 in [13], in experiment [14] and in experiment [15] were 4.84 µM (active), > 20 µM (active) and 5.56 µM (active), respectively. Also, the AC50 with INS1 was 4.54 µM (active); in experiment [16] it was 2.47 µM (active); in experiment [17] it was 42.5 µM (active).

As to `C[C@@H]1CN([C@H](C)CO)C(=O)c2cc(NC(=O)C3CCCCC3)ccc2O[C@H]1CN(C)Cc1ccc(-c2ccccc2)cc1`, in experiment [18], the AC50 was > 52 µM (inactive).

Turning to `COc1ccccc1CSc1nnc(-c2ccccc2)o1`, in experiment [19], the AC50 is > 52 µM (inactive).

Consider `COc1cccc(NC(=O)CCSc2ccc3ccccc3n2)c1`, for which the IC50 on Major prion protein is 3.97 µM (active); in “cells”, > 138 µM (inactive).

These data come from ChEMBL document CHEMBL1201862, “PubChem BioAssay data set” (2004).
